Assays:
Assay in all cases: relative viability (nuclei count vs DMSO), 5 days (fraction); higher = more cells survive
[1] = compound: C=CC(=O)N1CCC[C@@H](n2nc(-c3ccc(Oc4ccccc4)cc3)c3c(N)ncnc32)C1 [Ibrutinib] + CC(C)C[C@H](NC(=O)[C@H](Cc1ccccc1)NC(=O)c1cnccn1)B(O)O [Bortezomib] (partner 0.002 µM)
Method in brief: (§1)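 Each reported value is a median over duplicate plates. It expresses relative viability: treated-well nuclei count divided by vehicle-well nuclei count. Lung cancer cell lines in 1536-well plates were dosed by pin tool a day after seeding, alone with one drug or with a fixed anchor-drug dose plus five library-drug doses (not always all listed) in √10 steps, and nuclei were counted after 5 days.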

[2] = compound: C=CC(=O)N1CCC[C@@H](n2nc(-c3ccc(Oc4ccccc4)cc3)c3c(N)ncnc32)C1 [Ibrutinib] + Cc1nc(Nc2ncc(C(=O)Nc3c(C)cccc3Cl)s2)cc(N2CCN(CCO)CC2)n1 [Dasatinib] (partner 0.075 µM)
Method in brief: as §1

[3] = compound: C=CC(=O)Nc1cc(-n2c(=O)ccc3cnc4ccc(-c5ccc(NS(C)(=O)=O)cc5)cc4c32)ccc1C [BMX-IN-1] + CC(=O)c1c(C)c2cnc(Nc3ccc(N4CCNCC4)cn3)nc2n(C2CCCC2)c1=O [Palbociclib] (partner 0.5 µM)
Method in brief: as §1

[4] = compound: C=CC(=O)Nc1cc(-n2c(=O)ccc3cnc4ccc(-c5ccc(NS(C)(=O)=O)cc5)cc4c32)ccc1C [BMX-IN-1] + CC1(C)CCC(c2ccc(Cl)cc2)=C(CN2CCN(c3ccc(C(=O)NS(=O)(=O)c4ccc(N[C@H](CCN5CCOCC5)CSc5ccccc5)c(S(=O)(=O)C(F)(F)F)c4)cc3)CC2)C1 [Navitoclax] (partner 0.5 µM)
Method in brief: as §1

Row | Cell Line | relative viability ([1]; first compound 0.005 µM) | relative viability ([1]; first compound 0.01581 µM) | relative viability ([1]; first compound 0.05 µM) | relative viability ([1]; first compound 0.1581 µM) | relative viability ([1]; first compound 0.5 µM) | relative viability ([2]; first compound 0.005 µM) | relative viability ([2]; first compound 0.01581 µM) | relative viability ([2]; first compound 0.05 µM) | relative viability ([2]; first compound 0.1581 µM) | relative viability ([2]; first compound 0.5 µM) | relative viability ([3]; first compound 0.02 µM) | relative viability ([3]; first compound 0.2 µM) | relative viability ([3]; first compound 0.6325 µM) | relative viability ([3]; first compound 2 µM) | relative viability ([4]; first compound 0.02 µM) | relative viability ([4]; first compound 0.2 µM) | relative viability ([4]; first compound 0.6325 µM) | relative viability ([4]; first compound 2 µM)
1 | 201T | 1.05 | 1.06 | 1.13 | 1.09 | 1.09 | 0.58 | 0.517 | 0.6 | 0.58 | 0.608 | 0.392 | 0.391 | 0.42 | 0.348 | 1.14 | 1.21 | 1.18 | 1.2
2 | A549 | – | – | – | – | – | – | – | – | – | – | – | – | – | – | 1.5 | 1.44 | 1.37 | 1.17
3 | A-427 | 0.906 | 0.962 | 0.981 | 0.985 | 0.916 | 0.625 | 0.677 | 0.769 | 0.666 | 0.655 | 0.488 | 0.573 | 0.571 | 0.504 | 1.04 | 0.987 | 0.971 | 1.01
4 | ABC-1 | 0.36 | 0.271 | 0.33 | 0.33 | 0.306 | 0.493 | – | 0.628 | 0.555 | 0.633 | 0.76 | 0.503 | 0.537 | 0.589 | – | – | – | –
5 | BEN | 0.54 | 0.828 | 0.667 | 0.57 | 0.572 | – | 0.291 | 0.232 | 0.273 | 0.314 | 0.489 | 0.479 | 0.479 | 0.518 | 0.066 | 0.0691 | 0.224 | 0.0676
6 | CAL-12T | 0.988 | 0.915 | 0.836 | 0.884 | 0.693 | 0.363 | 0.295 | 0.354 | 0.475 | 0.24 | 0.466 | 0.415 | 0.523 | 0.503 | 1.28 | 1.21 | 1.22 | 1.24
7 | COR-L23 | 1.13 | 0.992 | 0.983 | 0.917 | 1.1 | 0.614 | 0.396 | 0.497 | 0.513 | 0.544 | 0.306 | 0.293 | 0.384 | 0.311 | 1.52 | 1.46 | 1.14 | 1.02
8 | COR-L 105 | 0.514 | 0.607 | 0.512 | 0.683 | 0.348 | 0.258 | 0.369 | 0.229 | 0.322 | 0.162 | 0.449 | 0.442 | 0.447 | 0.39 | 0.756 | 0.779 | 0.875 | 0.709
9 | Calu-6 | 0.992 | 0.959 | 0.934 | 1.11 | 0.932 | – | – | – | – | – | – | – | – | – | 1.08 | 1.06 | 0.902 | 0.823
10 | ChaGo-K-1 | 0.906 | 1.04 | 0.927 | – | 0.959 | 0.599 | 0.479 | 0.553 | 0.485 | 0.587 | 0.996 | 1.13 | 0.905 | 0.987 | 0.937 | 0.988 | 1.27 | 0.531
11 | EBC-1 | 0.693 | 0.524 | 0.555 | 0.668 | 0.486 | – | – | – | – | – | – | – | – | – | 0.425 | 0.341 | 0.434 | 0.329
12 | EKVX | 0.894 | 0.929 | 0.975 | 0.925 | 0.489 | 0.525 | 0.455 | 0.481 | 0.489 | 0.352 | 0.424 | 0.37 | 0.773 | 0.416 | 0.979 | 1.13 | 0.966 | 1
13 | EMC-BAC-2 | 1 | 1 | 0.997 | 1.05 | 1.01 | 0.314 | 0.316 | 0.346 | 0.343 | 0.296 | 0.543 | 0.537 | 0.528 | 0.516 | 1.41 | 1.35 | 1.08 | 1.19
14 | EPLC-272H | – | 0.881 | 0.924 | 0.839 | 0.753 | 0.274 | 0.294 | 0.284 | 0.279 | 0.188 | 0.323 | 0.324 | 0.323 | 0.317 | 1.25 | 1.22 | 1.08 | 1.18
15 | H3255 | 0.583 | 0.889 | 0.51 | 0.617 | 0.313 | 0.35 | 0.346 | 0.276 | 0.292 | 0.242 | 0.311 | 0.318 | 0.349 | 0.299 | 0.51 | 0.595 | 0.544 | 0.633
16 | HARA | 1.02 | 1.14 | 0.987 | 0.976 | 0.937 | 0.288 | 0.235 | 0.223 | 0.236 | 0.194 | 0.304 | 0.299 | 0.258 | 0.247 | 1.22 | 1.36 | 1.09 | 1.08
17 | HCC-15 | 1.13 | – | – | – | 1.1 | 0.678 | 0.615 | 0.637 | 0.51 | 0.66 | 0.844 | 0.762 | 0.84 | 0.802 | 0.768 | 0.726 | 0.706 | 0.73
18 | HCC-44 | 0.896 | 0.881 | 0.987 | 0.908 | 0.946 | – | – | – | – | – | 1.02 | 0.96 | 0.996 | 0.979 | 1.25 | 1.16 | 1.13 | 0.989
19 | HCC-78 | 0.513 | 0.453 | 0.58 | 0.496 | 0.488 | 0.309 | 0.402 | 0.304 | 0.312 | 0.267 | 0.447 | 0.464 | 0.492 | 0.549 | 0.859 | 0.851 | 1 | 0.863
20 | HCC-366 | 1.03 | 0.977 | 1.09 | 1.01 | 1.07 | 0.734 | 0.569 | 0.633 | 0.538 | 0.597 | 0.535 | 0.385 | 0.454 | 0.485 | 1.54 | 1.29 | 1.15 | 1.05
